One data set can be described thus: in vitro. It is filed as in vitro ADME, human. The settings on record: for Vmax / Km: conversion of profenofos to BCP; for Km: pH 7.4. The method, then:
Incubations of profenofos with rat and human liver microsomes, liver cytosol and plasma were performed to quantify in vitro rates of BCP formation. Conditions were optimized to be linear for metabolite formation with regard to incubation time and microsomal, cytosolic and plasma protein concentration (data not shown). The final incubations were carried out in 100 mM Tris HCl (pH 7.4, 37 °C) containing (final concentrations) 5 mM MgCl2, 2 mM CaCl2 [to stimulate PON1 activity (Carr et al. [2015])], 2 mM NADPH (cofactor to also include CYP-mediated metabolism), enzyme preparation (final concentration 2 mg/ml for human liver microsomes and cytosol and 4.4 mg/ml for human plasma; 0.5 mg/ml for rat microsomes and cytosol and 1.65 mg/ml for rat plasma) and profenofos (at final concentrations ranging from 1 to 100 μM, added from 100 times concentrated stock solutions in DMSO). Control incubations were performed in the absence of microsomes, cytosol or plasma. After 2 min pre-incubation, the reaction was initiated by adding the substrate and mixtures were incubated for 2 min in a 37 °C water bath. The total volume of the incubation mixtures was 200 μl. The reaction was terminated by the addition of 50 μl ice cold ACN and samples were kept on ice. The mixture was centrifuged at 14,000g for 20 min at 4 °C and the supernatant was analyzed using UPLC-UV.
All samples from incubations were analyzed using a Waters Acquity UPLC H class system that consisted of a quaternary solvent manager, a sample manager, and a photodiode array (PDA) detector, equipped with a Water Acquity UPLC® BEH C18 column (1.7 μm, 2.1 × 50 mm) and Waters Xbridge UPLC® BEH C18 pre-column (2.5 μM, 2.1 × 5 mm). The temperature of the column was kept at 40 °C and the auto sampler at 10 °C during the UPLC analysis. The mobile phases used for the analysis consisted of (A) 0.1% TFA in nanopure water and (B) 100% ACN. A gradient elution at a flow rate of 0.6 ml/min was applied for the analysis with the initial condition of 100% A:0% B (v/v), changing in a linear way to 0% A:100% B from 0 to 6 min, which was maintained for 30 s, and then changed back to the initial conditions in 30 s, which were maintained for 1 min. The injection volume for each sample was 3.5 μl.
Under these conditions, the retention times of profenofos and BCP were 4.76 and 3.37 min, respectively. The amounts of profenofos and BCP were quantified by integrating the peak areas at 237 nm using calibration curves that were prepared using commercially available standards.
Kinetic parameters including the apparent maximum velocity (Vmax) and the apparent Michaelis–Menten constant (Km) for BCP formation were obtained by fitting the data for the substrate concentration-dependent rate of conversion (expressed in nmol/min/mg protein) using GraphPad Prism 5, version 5.04 (San Diego, California, USA) to the standard Michaelis–Menten equation: V=Vmax∗S/(Km+S) in which the S represents the concentration of substrate, expressed in μM, V and Vmax the velocity and the maximum velocity of the reaction, respectively, expressed in nmol/min/mg protein, and Km the apparent Michaelis–Menten constant, expressed in μM. The kinetic parameter values for conversion of profenofos to BCP in the liver microsomes, liver cytosol and plasma were determined. To determine the catalytic efficiency, Vmax was divided by the Km.

Data set [1] can be described thus: Control incubations without microsomes, cytosol or plasma (spontaneous hydrolysis). It is filed as physicochemical. The settings on record: 100 mM Tris HCl pH 7.4, 37 °C, 2 min, no enzyme preparation. As for the experimental part: Incubations of profenofos with rat and human liver microsomes, liver cytosol and plasma were performed to quantify in vitro rates of BCP formation. Conditions were optimized to be linear for metabolite formation with regard to incubation time and microsomal, cytosolic and plasma protein concentration (data not shown). […] The mixture was centrifuged at 14,000g for 20 min at 4 °C and the supernatant was analyzed using UPLC-UV.
The conversion of profenofos to BCP was measured in incubations with both rat and human liver microsomes, cytosol and plasma. […] In control incubations, small amounts (max 0.04% of the amount of profenofos added) of BCP were detected, indicating some spontaneous hydrolysis of profenofos in the aqueous environment, which has also been observed in previous studies (Aly and Badawy [1982]). The BCP formation data for microsomes, cytosol and plasma were, therefore, corrected for BCP levels detected in control incubations.

Data set [2] deals with AChE of human erythrocytes. The settings on record: freshly obtained human erythrocytes; ref Das and Jamil [2006]; read-out: IC50 AChE inhibition; cited from earlier work.
The subject of another data set is rat. The settings on record: oral administration, ref JMPR [2007]; cited from earlier work.
The subject of the next data set is brain AChE. The settings on record: rats, single exposure; ref JMPR [2007]; cited from earlier work.

pIC50: −log10 of the molar value.

The Km is the substrate concentration at which the rate is half of its maximum. The term pIC50 denotes the negative decadic logarithm of the IC50, by convention in mol/L. A word on the LD50: it is the dose expected to kill half of the subjects tested. As for `CCCSP(=O)(OCC)Oc1ccc(Br)cc1Cl` (stereo not shown) [profenofos, O-(4-bromo-2-chlorophenyl) O-ethyl S-propyl phosphorothioate], in “in vitro” (human liver cytosol), the Vmax was 1.1 nmol/min/mg cytosolic protein and the Michaelis-Menten constant (Km) came out at 1.4 µM. Further, in “in vitro” (human liver microsomes), the Vmax is given as 1.2 nmol/min/mg microsomal protein and the Km was determined as 6.9 µM. For the same molecule, in “in vitro” (human plasma), the Vmax is recorded as 0.99 nmol/min/mg plasma protein and the Michaelis-Menten constant (Km) stood at 158 µM. Also, in “in vitro” (human vs rat liver cytosol), the “Catalytic efficiency, fold lower for human than rat liver cytosol” value is given as 3.8 fold; the “Km, fold higher for human than rat liver cytosol” value is on record as 4.1 fold; the “Vmax, fold higher for human than rat liver cytosol” value amounted to 1.1 fold. Also, in the data set “in vitro” (human vs rat liver microsomes), the “Catalytic efficiency, fold lower in human than rat liver microsomes” value amounted to 6.5 fold; the “Km, fold lower in human than rat liver microsomes” value came out at 1.2 fold; the “Vmax, fold lower in human than rat liver microsomes” value was 7.7 fold. In “in vitro” (human vs rat plasma), the “Catalytic efficiency, fold lower for human than rat plasma” value was 32 fold; the “Km, fold higher for human than rat plasma” value came to 44 fold; the “Vmax, fold higher for human than rat plasma” value is on record as 1.5 fold. The “BCP detected in control incubations (spontaneous hydrolysis)” value in data set [1] is ≤ 0.04 % of the amount of profenofos added. Further, in data set [2], the pIC50 was 6.46. In addition, the LD50 with rat was 358 to 1178 mg/kg. Further, in the data set with brain AChE, the “NOAEL for inhibition of brain AChE” value was 100 mg/kg bw.

The values above are taken from publication PMC8032624, “Prediction of dose-dependent in vivo acetylcholinesterase inhibition by profenofos in rats and humans using physiologically based kinetic (PBK) modeling-facilitated reverse dosimetry” (Archives of Toxicology, 2021).
